According to patent US20240342176A1, “PHARMACEUTICAL COMBINATION AND APPLICATION THEREOF” (GUANGZHOU JOYO PHARMATECH CO., LTD, priority 2021, published 2024):

Columns and labels:
human Treg cells = test: In vitro pharmacodynamic experiment on human Treg cells (flow cytometry CD4, CD25, Foxp3); type: cell-based; conditions: for IC50: Homo sapiens, 120 h, five days of compound incubation, CD4, CD25, Foxp3 positive counts vs DMSO control, read-out: IC50, inhibitory activity on human Treg cells
Description: • 1. Research purpose: The in vitro pharmacodynamic experiment of compound I on human Treg cells. • 2. […] Experimental methods: • 1) A 96-well cell culture plate was coated with 10 μg/mL anti-human CD3, 50 μL per well, incubated at 37° C. for three hours, and then rinsed with X-VIVO medium. • 2) Human peripheral blood mononuclear cells (purchased from Hemacare) were resuscitated and stained with CellTrace Violet (CTV). • 3) After staining, Human Naive CD4+ T cells were isolated using the Human naïve CD4 isolation kit. • 4) IL-2 (10 ng/ml), CD28 (2 μg/mL), and TGF-b (1 ng/mL) were added to the cell culture medium, and different concentrations of the test compounds were added at the same time. • 5) After five days of compound incubation, CD4, CD25, and Foxp3 were detected by flow cytometry. The positive counts of CD4, CD25, and Foxp3 were calculated, and the relative survival rate and IC50 were calculated compared with the DMSO control group. • 4. Experimental results: • The experiment used the flow cytometry method to determine the in vitro pharmacodynamic experiment of the test compound I on human Treg cells. The detection results are shown in A and B of FIG. 5 and Table 3.

PI3Kδ = PI3Kδ (Homo sapiens (Human), UniProt O00329); test: ADP-Glo chemiluminescence enzymatic activity assay, PI3Kδ; type: biochemical; conditions: mean ± SD, N = 3, ATP 40 μM
Chain of PI3Kδ (O00329 whole entry, looked up): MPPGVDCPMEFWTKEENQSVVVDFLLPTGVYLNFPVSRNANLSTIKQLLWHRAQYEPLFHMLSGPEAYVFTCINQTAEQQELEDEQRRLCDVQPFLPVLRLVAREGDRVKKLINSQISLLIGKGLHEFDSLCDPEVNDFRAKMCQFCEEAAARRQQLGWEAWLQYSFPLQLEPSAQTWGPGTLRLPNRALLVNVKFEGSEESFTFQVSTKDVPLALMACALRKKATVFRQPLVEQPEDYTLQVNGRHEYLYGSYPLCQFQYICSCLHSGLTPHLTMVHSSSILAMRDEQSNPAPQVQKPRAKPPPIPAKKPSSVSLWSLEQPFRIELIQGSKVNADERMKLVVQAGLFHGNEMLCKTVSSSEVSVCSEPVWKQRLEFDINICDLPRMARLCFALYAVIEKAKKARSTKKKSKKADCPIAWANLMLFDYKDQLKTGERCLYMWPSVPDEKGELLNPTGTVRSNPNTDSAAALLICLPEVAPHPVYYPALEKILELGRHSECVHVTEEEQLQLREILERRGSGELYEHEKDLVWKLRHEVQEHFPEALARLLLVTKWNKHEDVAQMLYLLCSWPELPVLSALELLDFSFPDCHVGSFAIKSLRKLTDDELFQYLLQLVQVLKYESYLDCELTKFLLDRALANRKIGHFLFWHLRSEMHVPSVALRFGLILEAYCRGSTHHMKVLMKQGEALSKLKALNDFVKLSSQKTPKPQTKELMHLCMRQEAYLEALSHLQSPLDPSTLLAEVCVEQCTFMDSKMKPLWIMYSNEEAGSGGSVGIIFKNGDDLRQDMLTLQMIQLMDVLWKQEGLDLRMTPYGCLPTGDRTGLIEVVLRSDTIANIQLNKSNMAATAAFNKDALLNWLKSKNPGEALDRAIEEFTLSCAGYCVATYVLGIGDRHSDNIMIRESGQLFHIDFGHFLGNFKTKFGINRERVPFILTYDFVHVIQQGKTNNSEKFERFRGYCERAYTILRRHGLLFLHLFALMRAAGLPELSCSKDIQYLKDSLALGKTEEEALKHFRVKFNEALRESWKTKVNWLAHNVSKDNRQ
Chain of PI3Kδ (P27986 whole entry partner, looked up): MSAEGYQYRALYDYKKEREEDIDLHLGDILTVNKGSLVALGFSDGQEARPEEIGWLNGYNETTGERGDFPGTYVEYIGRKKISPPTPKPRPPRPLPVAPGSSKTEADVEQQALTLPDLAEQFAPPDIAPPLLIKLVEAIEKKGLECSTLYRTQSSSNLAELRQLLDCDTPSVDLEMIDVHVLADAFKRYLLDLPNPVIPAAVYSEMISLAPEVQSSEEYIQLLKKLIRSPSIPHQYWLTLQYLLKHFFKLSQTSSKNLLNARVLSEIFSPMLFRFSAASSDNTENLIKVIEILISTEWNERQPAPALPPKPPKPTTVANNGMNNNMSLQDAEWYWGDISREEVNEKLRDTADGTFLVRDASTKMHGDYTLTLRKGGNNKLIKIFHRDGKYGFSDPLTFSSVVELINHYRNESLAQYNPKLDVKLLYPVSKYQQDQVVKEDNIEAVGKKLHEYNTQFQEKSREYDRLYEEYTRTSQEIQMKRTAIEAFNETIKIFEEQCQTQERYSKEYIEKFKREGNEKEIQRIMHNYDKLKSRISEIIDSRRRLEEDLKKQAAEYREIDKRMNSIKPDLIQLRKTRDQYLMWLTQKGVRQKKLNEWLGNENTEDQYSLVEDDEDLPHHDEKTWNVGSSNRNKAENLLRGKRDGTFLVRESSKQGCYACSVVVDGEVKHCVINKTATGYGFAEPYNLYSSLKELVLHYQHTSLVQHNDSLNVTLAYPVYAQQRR
Description: (§1) • 1. Research purpose: The inhibitory effect of compound I on the enzymatic activity of PI3Kδ and PI3Kγ in vitro. • 2. Experimental materials: • (1) Main instrument: Envision (PerkinElmer-2104) • (2) Main reagents: ADP-Glo kinase kit (purchased from Promega), PI3Kδ (P1108/P85a) (purchased from Millipore), and PI3Kγ (P120γ) (purchased from Millipore). • 3. Experimental methods: • 1) Preparation of buffer salt solution: A 10× buffer salt solution with a pH of 7.5 containing 500 mM HEPES, 500 mM NaCl, and 30 mM MgCl2 was prepared with ultrapure water and stored at 4° C. for later use. Before use, the above buffer salt solution was diluted to a 3.33× buffer salt solution and BSA was added to a final concentration of 0.333 mg/mL. • 2) A 100× reference compound (compound I) was prepared with a starting concentration of 100 nM, diluted in a 3-fold serial dilution to 10 concentrations and transferred to the corresponding 384 microwell plate at 50 nL/well. In the control group, 50 nL/well of DMSO was added. • 3) 3.33×PI3K solutions were prepared with the 3.33× buffer salt solution, PI3Kδ at a final concentration of 0.25 nM, PI3Kγ at a final concentration of 0.4 nM. A 3.33×PIP2:3PS solution was prepared, mixed with the enzyme solutions at a volume ratio of 1:1, and added to the 384 microwell plate in 3 μL/well. […] The luminescence value was read using Envision. • 4. […]

PI3Kγ = PI3Kγ (Homo sapiens (Human), UniProt P48736); test: ADP-Glo chemiluminescence enzymatic activity assay, PI3Kγ; type: biochemical; conditions: mean ± SD, N = 3, ATP 25 μM
Chain of PI3Kγ (P48736 whole entry): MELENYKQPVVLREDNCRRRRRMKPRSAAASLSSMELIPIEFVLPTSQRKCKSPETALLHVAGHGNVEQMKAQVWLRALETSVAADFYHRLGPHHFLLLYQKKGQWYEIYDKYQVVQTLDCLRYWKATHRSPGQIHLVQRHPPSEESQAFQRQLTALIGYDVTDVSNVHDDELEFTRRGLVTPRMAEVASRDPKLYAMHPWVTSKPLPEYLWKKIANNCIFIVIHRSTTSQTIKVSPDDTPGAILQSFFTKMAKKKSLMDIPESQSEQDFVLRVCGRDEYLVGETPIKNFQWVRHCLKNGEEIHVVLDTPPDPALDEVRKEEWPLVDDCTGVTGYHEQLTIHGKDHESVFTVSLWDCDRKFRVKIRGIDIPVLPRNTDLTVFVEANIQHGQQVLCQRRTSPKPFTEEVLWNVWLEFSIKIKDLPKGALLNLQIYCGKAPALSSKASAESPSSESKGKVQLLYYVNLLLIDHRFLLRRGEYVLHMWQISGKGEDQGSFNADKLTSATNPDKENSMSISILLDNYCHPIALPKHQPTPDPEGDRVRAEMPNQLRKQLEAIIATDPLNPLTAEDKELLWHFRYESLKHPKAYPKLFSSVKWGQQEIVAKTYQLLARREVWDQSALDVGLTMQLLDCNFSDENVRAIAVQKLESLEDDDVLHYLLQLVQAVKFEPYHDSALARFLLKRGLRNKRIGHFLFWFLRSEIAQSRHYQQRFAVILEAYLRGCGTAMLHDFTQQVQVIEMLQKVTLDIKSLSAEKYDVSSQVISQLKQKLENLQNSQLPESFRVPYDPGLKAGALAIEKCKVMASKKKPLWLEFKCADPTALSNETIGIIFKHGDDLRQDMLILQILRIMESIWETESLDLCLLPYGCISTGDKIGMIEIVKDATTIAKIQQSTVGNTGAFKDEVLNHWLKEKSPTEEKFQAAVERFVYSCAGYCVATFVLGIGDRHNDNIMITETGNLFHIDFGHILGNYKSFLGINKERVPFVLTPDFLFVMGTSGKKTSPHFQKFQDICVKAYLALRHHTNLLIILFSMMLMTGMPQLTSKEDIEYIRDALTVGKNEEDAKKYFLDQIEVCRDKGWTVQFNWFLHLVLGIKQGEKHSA
Description: as §1

Compound `CC[C@H](Nc1ncnc2[nH]cnc12)c1nc2cccc(F)c2c(=O)n1-c1ccccc1` [Idelalisib, reference compound] has an IC50 (human Treg cells) of 31700 pM.

Work on `COCCOc1cnc2ccc(-c3cnc(OC)c(NS(=O)(=O)c4sc(C)nc4C)c3)cn2c1=O` [Compound I] yielded an IC50 (PI3Kδ) of 180 ± 10 pM, an IC50 (PI3Kγ) of 290 ± 20 pM and an IC50 (human Treg cells) of 10 pM. For the same compound, the “inhibitory activity on human Treg cells relative to Idelalisib” value (human Treg cells; ratio of IC50 values) was 3172 times.
